From patent US10703761B2, “Bile acid receptor modulators and methods of use thereof” (City of Hope, priority 2016, dated 2020) come the findings set out here.

Entries after “also recorded” stand apart in the source; their conditions may differ.

The term EC50 denotes the midpoint of the concentration-response curve.

For this assay, the target named is T1, TGR5 (Homo sapiens, UniProt Q8TDU6).
T1 construct: expressed in transfected cells
T1 sequence (Q8TDU6 1-330): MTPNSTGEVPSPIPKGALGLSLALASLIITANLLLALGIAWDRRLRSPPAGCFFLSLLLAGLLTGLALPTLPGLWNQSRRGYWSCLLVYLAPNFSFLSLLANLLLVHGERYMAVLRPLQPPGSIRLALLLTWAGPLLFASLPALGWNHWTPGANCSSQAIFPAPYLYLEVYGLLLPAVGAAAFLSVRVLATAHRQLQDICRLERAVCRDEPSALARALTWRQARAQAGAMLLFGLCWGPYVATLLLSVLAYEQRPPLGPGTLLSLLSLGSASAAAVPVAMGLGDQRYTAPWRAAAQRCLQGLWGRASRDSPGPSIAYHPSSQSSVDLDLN
Description: TGR5 luciferase reporter (pCRE-luc) / cAMP assay in HEK293 cells overexpressing TGR5. Type of assay: cell-based. How it is done:
FIG. 1(A-C): FIG. 1(A) Chemical structure of berberine. FIG. 1(B) HEK293 cells lacking or stably-overexpressing TGR5 were treated with increasing doses of berberine for 16 h. TGR5-reporting activity was evaluated by luciferase assay (n=8). FIG. 1(C) The ability of berberine to activate TGR5 and FXR was evaluated in comparison to the synthetic FXR agonist GW4064. Ligands were used at a concentration of […] (n=4). Statistical analysis was performed using paired t-test. **p<0.05, ***p<0.001.
FIG. 2(A) HEK293 cells lacking or overexpressing TGR5 were treated with increasing doses of berberine for 16 hours and TGR5-reporting activity was evaluated using luciferase assays. FIG. 2(B) Ability of berberine to activate metabolic nuclear receptors was evaluated in comparison to native ligands. All ligands were used at a 10 μM concentration.
To potentially identify selective TGR5 modulators via a novel strategy, we synthesized and screened a focused chemical compounds library to search for derivatives that have higher affinity and/or higher selectivity to effectively modulate TGR5 activity in vivo. A focused small chemical compound library was evaluated in in vitro TGR5 assays to search for berberine-derived agonists that have higher affinity, potency, and/or higher selectivity for TGR5. The receptor binding assay was performed by measuring the level of cyclic AMP (cAMP) using TR-FRET (time-resolved fluorescence resonance energy transfer) assay. The level of intracellular cAMP was determined with Lance kit (PerkinElmer). Lithocholic acid was used as control ligand. Z′ factor was used to validate assays. Non-linear regression curves, without constraints, was performed by using four parameter equation and GraphPad Prism Software (GraphPad Inc.) to obtain the EC50 values. All drugs tested positive with TR-FRET for TGR5 binding affinities were evaluated in cell-based assays, using HEK293 cells stably over expressing human TGR5 transfected with the cAMP-sensitive reporter plasmid pCRE-Luc. Compounds were initially tested at doses of […] and the relative fold activation on TGR5 was determined. […]

In the case of `COc1ccc2cc3[n+](cc2c1OC)CCc1cc2c(cc1-3)OCO2` [berberine], the “TGR5-reporting effect in cells lacking TGR5” value (HEK293 cells lacking TGR5) is “lost”. The TGR5 activation entry (HEK293 cells overexpressing TGR5, 16 h) is “is a ligand for the G protein-coupled receptor TGR5; also recorded: can activate the bile acid receptor TGR5”. Besides, the EC50 (unpublished data, read-out: TGR5 agonist EC50) worked out at 460 nM.
